# pIC50: −log10 of the molar value.
# Columns and labels:
# Format in all cases: biochemical
# human topoisomerase II α = biological target: T1, human topoisomerase II α (Homo sapiens, UniProt P11388); assay: Topoisomerase II ATPase assay (Malachite Green); conditions: for inhibition at 10 µM: Percent inhibition @10 μM, Malachite Green assay, read-out: TOPO II inh. (inhibition of the TOPO ATPase activity)
# T1 construct: purchased Professor Neil Osheroff (Vanderbilt University, Nashville, Tenn., USA)
# Method: The inhibition of topoisomerase II is measured as follows:
# Purified human topoisomerase II α was purchased from Professor Neil Osheroff (Vanderbilt University—Nashville, Tenn., USA).
# The pUC18 (Stratagene) plasmid was introduced into Escherichia coil XL-1 (Stratagene) and purified with the HiSpeed Plasmid Purification kit (Qiagen) according to the manufacturer instructions. The purity of the DNA preparations was evaluated spectrophotometrically (OD260/OD280 ratio) and by agarose gel.
# Preparation of the Malachite Green Reagent:
# Three volumes of 0.045% malachite green (Sigma, catalog no. M-9636) diluted in water are mixed for 20 min at room temperature with one volume of 4.2% ammonium molybdate (Axon Lab AG, catalog no. A-2246) diluted in 4 N HCl. After mixing, Triton X-100 (Merck, catalog no. 1.12298) is added to a final concentration of 0.01%. The solution is filtered at 0.2 μm and stored at room temperature in the dark.
# ATP hydrolysis was monitored by measuring the production of inorganic phosphate released during the catalytic cycle of topoisomerase II α with acidic molybdate and malachite green (Lanzetta,et al., An improved assay for nanomole amounts of inorganic phosphate, Anal Biochem 1979;100:95-7). Briefly, human topoisomerase II α is pre-incubated at 37° C. for 10 min in 90 μl reaction buffer (10 mM Tris.HCl pH 7.9, 175 mM KCl, 1 mM EDTA, 2 mM DTT, 5 mM MgCl2, 2.5% glycerol) in the presence of the indicated amount of pUC18 and DMSO in F96 maxisorp Nunclmmuno plates (Nunc). The reaction is initiated by the addition of 10 μl ATP at the indicated concentrations and is carried out for 30 min at 37° C. under constant agitation. The reaction is stopped by the addition of 200 μl molybdate/malachite green solution and the absorbance is immediately measured at 630 nm. The OD630 value is measured in the absence of protein for each ATP concentration (background) is subtracted from the value obtained in the presence of enzyme. A standard curve with inorganic phosphate is used to determine the amount of inorganic phosphate produced during the reaction and to ensure that the measures are in the linear range of the assay. The kinetic parameters of the enzymes are determined from measurements (at least in duplicate) of the initial rates at different ATP concentrations. The data are analyzed with GraFit (Erithacus Software).
# The compounds are tested at 10 μM of concentration to determine their inhibition potential given % of inhibition of the TOPO II ATPase activity.
# For the determination of the IC50, the procedure is repeated for different concentrations of test compound selected to cover the range of 0% to 100% inhibition and the concentration at which 50% inhibition of topoisomerase II occurs (IC50) for each compound is determined from concentration-inhibition curves in a conventional manner.
# IGF = IGF (Homo sapiens, UniProt P08069); assay: Kinase panel inhibition; conditions: @ 10 μM inhibitor; read-out: IGF kinase inh.
# Method: (§1) Percentage Inhibition of the Kinase at 10 μM Concentration of the Inhibitor
# (§2) Paul W. Manley, Pascal Furet, Guido Bold, Josef Brüggen, Jürgen Mestan, Thomas Meyer, Christian R. Schnell, and Jeanette Wood; Anthranilic Acid Amides: A Novel Class of Antiangiogenic VEGF Receptor Kinase Inhibitors J. Med. Chem. 2002, 45, 5687-5693. Wan, Yongqin; Hur, Wooyoung; Cho, Charles Y.; Liu, Yi; Adrian, Francisco J.; Lozach, Olivier; Bach, Stephane; Mayer, Thomas; Fabbro, Doriano; Meijer, Laurent; Gray, Nathanael S; Synthesis and Target Identification of Hymenialdisine Analogs Chemistry & Biology 2004, 11(2), 247-259.
# PKB = PKB (Homo sapiens, UniProt P31749); assay: Kinase panel inhibition; conditions: @ 10 μM inhibitor; read-out: PKB kinase inh.
# Method: as §1, §2
# MET = MET (Homo sapiens, UniProt P08581); assay: Kinase panel inhibition; conditions: @ 10 μM inhibitor; read-out: MET kinase inh.
# Method: as §1, §2
# Raf-1 = Raf-1 (Homo sapiens, UniProt P04049); assay: Kinase panel inhibition; conditions: @ 10 μM inhibitor; read-out: Raf-1 kinase inh.
# Method: as §1, §2
# Tek = Tek (Homo sapiens, UniProt Q02763); assay: Kinase panel inhibition; conditions: @ 10 μM inhibitor; read-out: Tek kinase inh.
# Method: as §1, §2
# KIT = KIT (Homo sapiens, UniProt P10721); assay: Kinase panel inhibition; conditions: @ 10 μM inhibitor; read-out: KIT kinase inh.
# Method: as §1, §2
# Flt-4 = Flt-4 (Homo sapiens, UniProt P35916); assay: Kinase panel inhibition; conditions: @ 10 μM inhibitor; read-out: Flt-4 kinase inh.
# Method: as §1, §2
# ABL = ABL (Homo sapiens, UniProt P00519); assay: Kinase panel inhibition; conditions: @ 10 μM inhibitor; read-out: ABL kinase inh.
# Method: as §1, §2
# HER2 = HER2 (Homo sapiens, UniProt P04626); assay: Kinase panel inhibition; conditions: @ 10 μM inhibitor; read-out: HER2 kinase inh.
# Method: as §1, §2
# PDK1 = biological target: T2, PDK1 (Homo sapiens, UniProt O15530); assay: Kinase panel inhibition; conditions: @ 10 μM inhibitor; read-out: PDK1 kinase inh.
# T2 sequence (O15530 1-556): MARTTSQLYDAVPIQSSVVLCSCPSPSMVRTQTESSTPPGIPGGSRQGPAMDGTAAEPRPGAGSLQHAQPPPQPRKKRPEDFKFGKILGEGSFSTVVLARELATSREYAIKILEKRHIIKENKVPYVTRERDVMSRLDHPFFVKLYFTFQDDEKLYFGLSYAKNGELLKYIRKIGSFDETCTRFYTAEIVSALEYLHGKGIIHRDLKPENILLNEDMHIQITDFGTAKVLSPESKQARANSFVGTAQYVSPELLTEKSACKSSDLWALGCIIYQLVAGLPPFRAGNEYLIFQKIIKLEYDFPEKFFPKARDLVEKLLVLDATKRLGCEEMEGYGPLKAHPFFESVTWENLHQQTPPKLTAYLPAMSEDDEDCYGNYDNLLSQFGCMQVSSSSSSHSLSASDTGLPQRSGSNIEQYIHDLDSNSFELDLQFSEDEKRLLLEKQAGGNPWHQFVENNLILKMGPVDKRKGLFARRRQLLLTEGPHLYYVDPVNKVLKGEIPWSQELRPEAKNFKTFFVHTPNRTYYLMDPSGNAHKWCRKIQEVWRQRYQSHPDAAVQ
# Method: as §1, §2
# Flt-1 = Flt-1 (Homo sapiens, UniProt P17948); assay: Kinase panel inhibition; conditions: @ 10 μM inhibitor; read-out: Flt-1 kinase inh.
# Method: as §1, §2
# KDR = KDR (Homo sapiens, UniProt P35968); assay: Kinase panel inhibition; conditions: @ 10 μM inhibitor; read-out: KDR kinase inh.
# Method: as §1, §2
# HER1 = HER1 (Homo sapiens, UniProt P00533); assay: Kinase panel inhibition; conditions: @ 10 μM inhibitor; read-out: HER1 kinase inh.
# Method: as §1, §2
# FGFR = assay: Kinase panel inhibition; conditions: @ 10 μM inhibitor
# Method: as §1, §2
# PKA = assay: Kinase panel inhibition; conditions: @ 10 μM inhibitor
# Method: as §1, §2
# PKB, sequence (P31749 whole entry, species assumed): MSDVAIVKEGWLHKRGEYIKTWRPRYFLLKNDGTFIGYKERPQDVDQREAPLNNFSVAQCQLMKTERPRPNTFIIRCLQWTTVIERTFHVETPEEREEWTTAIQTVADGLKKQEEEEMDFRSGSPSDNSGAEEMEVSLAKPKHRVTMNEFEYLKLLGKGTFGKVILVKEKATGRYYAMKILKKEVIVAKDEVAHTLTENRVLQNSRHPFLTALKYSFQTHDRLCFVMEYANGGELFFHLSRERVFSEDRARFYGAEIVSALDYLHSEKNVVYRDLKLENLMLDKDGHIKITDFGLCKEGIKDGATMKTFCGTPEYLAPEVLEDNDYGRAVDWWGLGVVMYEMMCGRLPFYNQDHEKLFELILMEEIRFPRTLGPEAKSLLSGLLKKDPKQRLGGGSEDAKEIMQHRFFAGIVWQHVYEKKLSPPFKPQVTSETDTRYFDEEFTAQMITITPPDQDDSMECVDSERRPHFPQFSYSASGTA
# Raf-1, sequence (P04049 whole entry, species assumed): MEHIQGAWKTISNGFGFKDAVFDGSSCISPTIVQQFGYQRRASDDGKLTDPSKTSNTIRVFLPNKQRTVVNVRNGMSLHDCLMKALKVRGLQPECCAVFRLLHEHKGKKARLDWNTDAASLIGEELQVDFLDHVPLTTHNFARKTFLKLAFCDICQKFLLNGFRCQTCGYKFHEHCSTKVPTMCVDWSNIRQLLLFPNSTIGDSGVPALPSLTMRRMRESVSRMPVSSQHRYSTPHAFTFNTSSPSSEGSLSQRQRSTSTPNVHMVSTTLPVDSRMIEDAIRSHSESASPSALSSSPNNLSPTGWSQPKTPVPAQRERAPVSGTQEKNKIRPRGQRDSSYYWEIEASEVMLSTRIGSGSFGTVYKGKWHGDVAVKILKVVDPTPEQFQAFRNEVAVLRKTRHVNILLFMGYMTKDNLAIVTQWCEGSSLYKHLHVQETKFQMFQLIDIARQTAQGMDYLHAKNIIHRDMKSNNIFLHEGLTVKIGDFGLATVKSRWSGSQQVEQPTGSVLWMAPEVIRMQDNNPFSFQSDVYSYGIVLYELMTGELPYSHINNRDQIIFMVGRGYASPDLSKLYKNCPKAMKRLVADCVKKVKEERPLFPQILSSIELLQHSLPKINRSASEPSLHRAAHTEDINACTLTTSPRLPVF
# Flt-1, sequence (P17948 27-1338, species assumed): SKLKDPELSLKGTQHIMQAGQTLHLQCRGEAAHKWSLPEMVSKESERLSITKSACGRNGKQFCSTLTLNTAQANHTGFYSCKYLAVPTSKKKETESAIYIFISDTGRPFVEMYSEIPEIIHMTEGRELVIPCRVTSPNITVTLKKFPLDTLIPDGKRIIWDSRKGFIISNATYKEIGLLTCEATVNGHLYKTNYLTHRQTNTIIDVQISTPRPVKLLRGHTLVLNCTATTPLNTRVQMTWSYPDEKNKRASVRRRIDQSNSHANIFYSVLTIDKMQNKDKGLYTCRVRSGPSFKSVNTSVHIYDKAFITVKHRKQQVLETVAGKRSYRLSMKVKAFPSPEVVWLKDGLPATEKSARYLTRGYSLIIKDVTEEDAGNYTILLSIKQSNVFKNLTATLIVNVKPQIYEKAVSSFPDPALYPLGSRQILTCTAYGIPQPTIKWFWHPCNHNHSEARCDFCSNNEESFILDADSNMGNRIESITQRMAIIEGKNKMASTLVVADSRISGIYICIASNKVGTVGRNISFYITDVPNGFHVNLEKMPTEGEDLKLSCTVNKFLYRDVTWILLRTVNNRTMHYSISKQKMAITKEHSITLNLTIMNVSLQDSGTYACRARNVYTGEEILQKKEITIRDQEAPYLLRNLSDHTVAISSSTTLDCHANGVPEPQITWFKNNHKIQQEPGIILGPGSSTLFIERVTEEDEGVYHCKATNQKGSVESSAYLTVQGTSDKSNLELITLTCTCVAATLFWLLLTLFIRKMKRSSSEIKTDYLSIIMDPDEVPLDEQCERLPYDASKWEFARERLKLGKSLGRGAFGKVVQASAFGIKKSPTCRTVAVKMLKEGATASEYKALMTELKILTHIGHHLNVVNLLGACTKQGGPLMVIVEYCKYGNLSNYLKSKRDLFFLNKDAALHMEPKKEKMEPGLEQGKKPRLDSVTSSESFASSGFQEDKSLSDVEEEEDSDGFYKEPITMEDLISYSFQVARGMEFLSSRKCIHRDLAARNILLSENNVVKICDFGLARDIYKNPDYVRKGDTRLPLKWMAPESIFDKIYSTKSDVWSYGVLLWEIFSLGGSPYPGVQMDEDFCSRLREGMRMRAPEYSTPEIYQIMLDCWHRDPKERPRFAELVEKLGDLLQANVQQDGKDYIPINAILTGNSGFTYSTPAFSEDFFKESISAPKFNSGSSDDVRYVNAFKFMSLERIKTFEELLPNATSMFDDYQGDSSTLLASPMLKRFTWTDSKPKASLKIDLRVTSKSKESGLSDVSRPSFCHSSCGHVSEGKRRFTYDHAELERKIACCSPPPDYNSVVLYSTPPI
# Flt-4, sequence (P35916 25-1363, species assumed): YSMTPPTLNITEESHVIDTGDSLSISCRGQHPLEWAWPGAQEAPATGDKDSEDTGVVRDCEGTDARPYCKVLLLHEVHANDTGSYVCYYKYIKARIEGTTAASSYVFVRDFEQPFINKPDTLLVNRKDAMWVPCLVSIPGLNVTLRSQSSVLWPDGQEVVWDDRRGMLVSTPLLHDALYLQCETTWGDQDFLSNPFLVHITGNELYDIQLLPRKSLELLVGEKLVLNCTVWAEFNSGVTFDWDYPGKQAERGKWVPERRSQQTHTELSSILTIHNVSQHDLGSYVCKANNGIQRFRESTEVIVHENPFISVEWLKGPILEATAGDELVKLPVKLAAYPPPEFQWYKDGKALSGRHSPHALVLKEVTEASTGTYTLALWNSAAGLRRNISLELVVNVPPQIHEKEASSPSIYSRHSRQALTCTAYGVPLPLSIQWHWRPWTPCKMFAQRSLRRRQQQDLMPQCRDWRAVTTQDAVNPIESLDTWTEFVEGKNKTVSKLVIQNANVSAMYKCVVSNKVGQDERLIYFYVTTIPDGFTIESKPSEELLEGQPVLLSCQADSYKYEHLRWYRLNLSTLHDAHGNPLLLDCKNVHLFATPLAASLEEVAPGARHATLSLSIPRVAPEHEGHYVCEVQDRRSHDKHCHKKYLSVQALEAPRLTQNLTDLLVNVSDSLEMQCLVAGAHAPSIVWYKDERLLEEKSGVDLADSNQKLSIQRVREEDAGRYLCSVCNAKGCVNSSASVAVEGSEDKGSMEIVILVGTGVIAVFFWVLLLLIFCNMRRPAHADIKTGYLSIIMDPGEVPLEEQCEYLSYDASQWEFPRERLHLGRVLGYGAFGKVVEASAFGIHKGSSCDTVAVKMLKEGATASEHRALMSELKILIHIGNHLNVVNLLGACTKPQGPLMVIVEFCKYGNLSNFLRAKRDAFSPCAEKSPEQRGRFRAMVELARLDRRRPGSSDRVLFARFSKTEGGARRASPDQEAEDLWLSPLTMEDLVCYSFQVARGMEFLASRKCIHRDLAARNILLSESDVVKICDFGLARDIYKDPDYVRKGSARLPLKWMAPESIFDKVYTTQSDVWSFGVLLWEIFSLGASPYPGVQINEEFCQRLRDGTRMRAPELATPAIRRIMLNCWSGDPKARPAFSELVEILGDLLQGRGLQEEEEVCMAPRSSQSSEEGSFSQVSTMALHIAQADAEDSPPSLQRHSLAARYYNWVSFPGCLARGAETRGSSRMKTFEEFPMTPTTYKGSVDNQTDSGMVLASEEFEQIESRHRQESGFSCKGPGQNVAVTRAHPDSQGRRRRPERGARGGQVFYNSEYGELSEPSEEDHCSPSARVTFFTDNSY
# HER2, sequence (P04626 23-1255, species assumed): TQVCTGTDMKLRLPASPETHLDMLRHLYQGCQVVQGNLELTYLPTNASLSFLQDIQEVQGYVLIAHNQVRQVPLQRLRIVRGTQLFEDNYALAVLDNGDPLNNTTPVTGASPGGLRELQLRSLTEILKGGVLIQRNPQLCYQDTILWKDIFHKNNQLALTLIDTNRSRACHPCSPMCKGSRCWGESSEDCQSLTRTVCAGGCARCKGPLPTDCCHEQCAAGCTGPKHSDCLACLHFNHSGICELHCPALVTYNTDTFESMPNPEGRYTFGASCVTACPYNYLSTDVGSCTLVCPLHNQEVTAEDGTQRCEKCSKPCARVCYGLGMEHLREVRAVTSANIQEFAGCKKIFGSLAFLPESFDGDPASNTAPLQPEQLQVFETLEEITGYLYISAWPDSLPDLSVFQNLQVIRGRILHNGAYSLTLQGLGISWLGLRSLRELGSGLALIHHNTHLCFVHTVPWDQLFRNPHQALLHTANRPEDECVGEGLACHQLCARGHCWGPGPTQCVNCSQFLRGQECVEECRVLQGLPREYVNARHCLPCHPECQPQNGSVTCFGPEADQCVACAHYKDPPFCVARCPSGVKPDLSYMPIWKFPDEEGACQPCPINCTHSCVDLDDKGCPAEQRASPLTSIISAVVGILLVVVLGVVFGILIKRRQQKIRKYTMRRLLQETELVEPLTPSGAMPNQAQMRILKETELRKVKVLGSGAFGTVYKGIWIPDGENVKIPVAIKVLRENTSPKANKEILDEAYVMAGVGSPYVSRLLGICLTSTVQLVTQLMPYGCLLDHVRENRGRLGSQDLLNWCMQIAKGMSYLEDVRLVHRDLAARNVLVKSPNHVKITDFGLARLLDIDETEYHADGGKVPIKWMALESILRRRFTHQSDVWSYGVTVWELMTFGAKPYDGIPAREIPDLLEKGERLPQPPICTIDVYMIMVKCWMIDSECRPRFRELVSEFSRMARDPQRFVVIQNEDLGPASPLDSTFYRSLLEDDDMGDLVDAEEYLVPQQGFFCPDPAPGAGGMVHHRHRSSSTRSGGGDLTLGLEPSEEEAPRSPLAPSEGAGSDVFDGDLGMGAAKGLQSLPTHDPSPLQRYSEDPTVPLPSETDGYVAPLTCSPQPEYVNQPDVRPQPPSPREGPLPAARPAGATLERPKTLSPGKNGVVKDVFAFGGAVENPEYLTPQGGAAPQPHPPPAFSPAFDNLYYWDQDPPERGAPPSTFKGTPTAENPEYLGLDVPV
pIC50 (human topoisomerase II α),inhibition at 10 µM (human topoisomerase II α) [%],inhibition at 10 µM (IGF) [%],inhibition at 10 µM (PKB) [%],inhibition at 10 µM (MET) [%],inhibition at 10 µM (Raf-1) [%],inhibition at 10 µM (Tek) [%],inhibition at 10 µM (KIT) [%],inhibition at 10 µM (Flt-4) [%],inhibition at 10 µM (ABL) [%],inhibition at 10 µM (HER2) [%],inhibition at 10 µM (PDK1) [%],inhibition at 10 µM (Flt-1) [%],inhibition at 10 µM (KDR) [%],inhibition at 10 µM (HER1) [%],FGFR kinase inh. (FGFR),PKA kinase inh. (PKA),SMILES
6.22,≥ 80,< 50,< 50,< 50,< 50,65 to 80,< 50,< 50,50 to 65,< 50,< 50,< 50,50 to 65,< 50,–,–,"CCc1nc2c(NC(C)(C)C)nc(Nc3ccc4ncsc4c3)nc2[nH]1 [Example 27, N*2*-Benzothiazol-6-yl-N*6*-tert-butyl-8-ethyl-9H-purine-2,6-diamine]"
–,–,≥ 80,50 to 65,≥ 80,65 to 80,≥ 80,≥ 80,≥ 80,≥ 80,65 to 80,≥ 80,65 to 80,≥ 80,65 to 80,++ (<80% ≧ 65%),–,"CC(C)(C)Nc1nc(Nc2ccc3ncsc3c2)nc2[nH]cnc12 [Example 14, N*2*-Benzothiazol-6-yl-N*6*-tert-butyl-9H-purine-2,6-diamine]"
5.68,65 to 80,< 50,< 50,< 50,< 50,< 50,< 50,< 50,65 to 80,< 50,< 50,< 50,50 to 65,< 50,–,+ (<65% ≧ 50%),"Cc1nc2c(NC(C)(C)C)nc(Nc3ccc4ncsc4c3)nc2[nH]1 [Example 25, N*2*-Benzothiazol-6-yl-N*6*-tert-butyl-8-methyl-9H-purine-2,6-diamine]"

# From patent US20070249639A1, “Use of 9H-Purine-2,6-Diamine Derivatives in the Treatment of Proliferative Diseases and Novel 9H-Purine-2,6-Diamine Derivatives” (priority 2004, published 2007)
